{"source": "patent US20060216342A1", "about": "“Micelle delivery system loaded with a pharmaceutical agent” (priority 2003, published 2006)", "key": {"LLC tumors": {"tested_on": "LLC tumors", "experiment": "Inhibition of LLC tumor growth in mice with different taxol preparations", "format": "in vivo", "settings": "ca. 100 μg taxol per injection, two injections, twenty days after first injection, untreated 2.00±0.60 g", "method": "Inhibition of tumor growth with different taxol preparations. Mice with LLC tumors were injected with different taxol formulations on day 10 post inoculation (ca. 100 μg of taxol per animal per injection). On day 5 after the first administration, the injections were repeated. Twenty days after the first injection, the mice were sacrificed; tumors extracted, rinsed twice with saline, wiped, and weighed. There were five mice in each experimental group."}, "[1]": {"experiment": "Micelle size by dynamic light scattering and freeze-fracture electron microscopy", "format": "physicochemical", "settings": "PEG-PE micelles with vs without tamoxifen", "method": "When required, 0.5 ml of a 12 μM solution of 2C5 or 2G4 in borate, pH 9.0 was added to 0.5 ml of pNP-PEG-PE-containing micelles with a PEG-PE concentration of 1.5 mM. The mixture was incubated for 3 h at room temperature (RT) and dialyzed against HBS, using cellulose ester membranes with a cut-off size of 300,000 Da (Spectrum Medical Industries, Rancho Dominguez, Calif.). To assess the quantity of the micelle-bound protein, CF-labeled antibody was used. Protein concentration was measured by associated fluorescence at an excitation wavelength of 490 nm and an emission of 520 nm on a F-2000 spectrofluorimeter (Hitachi, Japan). The micelle size was measured by dynamic light scattering using a N4 Plus Submicron Particle System (Coulter Corporation, Miami, Fla.) at PEG-PE concentration of 2-10 mM.\nFreeze-fracture electron microscopy. The sample was quenched using the sandwich technique and liquid nitrogen-cooled propane. A cooling rate of 10,000K/sec avoids ice crystal formation and cryofixation-caused artifacts. The fracturing process was carried out in JEOL JED-9000 freeze-etching equipment (Jeol, Peabody, Mass.) and the exposed fracture planes were shadowed with Pt for 30 sec at an angle of 25-35 degrees followed with carbon for 35 sec (2 kV, 60-70 mA, 1×10^−5 Torr). […]"}, "[2]": {"experiment": "Encapsulation of tamoxifen into PEG-PE micelles", "format": "physicochemical", "settings": "drug/PEG-PE molar ratio 1:1, after 0.22 μm filtration", "method": "Tamoxifen dissolved in methanol was added to the solution of PEG-PE in chloroform to obtain the drug/PEG-PE molar ratio of 1:1. Organic solvents were evaporated and micelles were formed by shaking the tamoxifen/PE-PEG film obtained in the presence of an aqueous buffer at 50° C. Free tamoxifen was removed by filtration through 0.22 μm filters. Tamoxifen was quantified using the assay procedure for diethylstilbesterol (United States Pharmacopeal Convention, 2000)."}, "[3]": {"experiment": "Incorporation of porphyrin into PEG-PE micelles", "format": "physicochemical", "method": "Porphyrin dissolved in methanol was added to a solution of PEG-PE in chloroform to obtain various final ratios of components. Organic solvents were removed under vacuum. Micelles were formed by shaking the PEG-PE/porphyrin film obtained in the presence of an aqueous buffer. Excess of porphyrin not incorporated into the micelles was separated by filtration of the micelle suspension through 0.2 μm filter. Concentration of porphyrin in micellar phase was estimated following the fluorescence at the excitation wavelength of […] and the emission wavelength of 674 nm (F635/674) after 100-200-fold dilution of the samples in methanol."}}, "data": [{"compound": "CC(=O)O[C@H]1C(=O)[C@@]2(C)[C@H]([C@H](OC(=O)c3ccccc3)[C@]3(O)C[C@H](OC(=O)[C@H](O)[C@@H](NC(=O)c4ccccc4)c4ccccc4)C(C)=C1C3(C)C)[C@]1(OC(C)=O)CO[C@@H]1C[C@@H]2O", "note": "[free taxol, paclitaxel]", "values": [{"measurement": "average weight of excised tumors", "setting": "LLC tumors", "value": "1.58 ± 0.48", "unit": "g"}]}, {"compound": "CC/C(=C(\\c1ccccc1)c1ccc(OCCN(C)C)cc1)c1ccccc1", "note": "[tamoxifen]", "values": [{"measurement": "effect of drug incorporation on micelle size", "setting": "[1]", "value": "does not change the size of the micelles significantly"}, {"measurement": "tamoxifen incorporated into PEG-PE micelles", "setting": "[2]", "value": "more than 95%"}]}, {"compound": "chlorin e6 trimethyl ester [porphyrin]", "values": [{"measurement": "efficiency of incorporation into micelles", "setting": "[3]; initial porphyrin/PEG-PE weight ratio of 1/2", "value": "about 80%"}, {"measurement": "efficiency of incorporation into micelles", "setting": "[3]; initial porphyrin/PEG-PE weight ratio of up to 1/5", "value": "~100", "unit": "%"}, {"measurement": "drug/PEG-PE in the resultant micelles", "setting": "[3]; initial weight ratio of 1/2", "value": "2/5"}]}]}
